Assay results as given in ChEMBL document CHEMBL5661979, “Pharmacological inhibition of BMK1 suppresses tumor growth through promyelocytic leukemia protein” (Cancer Cell, 2010).
Calls of active or inactive are those of the source. No cut-off for these calls is given here.

What was measured:
[1] = target: T1, Dual specificity mitogen-activated protein kinase kinase 5 (Homo sapiens) (UniProt Q13163); assay: Inhibition of MAP2K5 in human HeLa cells lysate at 2 uM pre incubated for 15 mins followed by ADP acyl phosphate probe addition and measured after 10 mins by LC-MS/MS analysis relative to control; format: subcellular; conditions: time 25.0 min
T1 sequence (whole entry): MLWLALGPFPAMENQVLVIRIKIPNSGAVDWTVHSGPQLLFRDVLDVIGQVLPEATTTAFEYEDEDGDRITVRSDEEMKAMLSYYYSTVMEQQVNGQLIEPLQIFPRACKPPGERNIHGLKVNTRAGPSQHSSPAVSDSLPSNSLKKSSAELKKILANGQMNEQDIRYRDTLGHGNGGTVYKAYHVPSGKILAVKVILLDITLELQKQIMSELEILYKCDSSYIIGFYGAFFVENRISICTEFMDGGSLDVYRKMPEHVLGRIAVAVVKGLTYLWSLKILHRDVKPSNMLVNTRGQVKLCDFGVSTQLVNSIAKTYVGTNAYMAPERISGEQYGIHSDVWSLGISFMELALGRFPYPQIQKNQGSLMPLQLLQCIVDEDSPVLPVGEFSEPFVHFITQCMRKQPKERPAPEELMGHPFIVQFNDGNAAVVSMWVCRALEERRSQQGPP

[2] = target: T2, Serine/threonine-protein kinase 4 (Homo sapiens) (UniProt Q13043); assay: Inhibition of MST1 in human HeLa cells lysate at 10 uM pre incubated for 15 mins followed by ADP acyl phosphate probe addition and measured after 10 mins by LC-MS/MS analysis relative to control; format: subcellular; conditions: time 25.0 min
T2 sequence (whole entry): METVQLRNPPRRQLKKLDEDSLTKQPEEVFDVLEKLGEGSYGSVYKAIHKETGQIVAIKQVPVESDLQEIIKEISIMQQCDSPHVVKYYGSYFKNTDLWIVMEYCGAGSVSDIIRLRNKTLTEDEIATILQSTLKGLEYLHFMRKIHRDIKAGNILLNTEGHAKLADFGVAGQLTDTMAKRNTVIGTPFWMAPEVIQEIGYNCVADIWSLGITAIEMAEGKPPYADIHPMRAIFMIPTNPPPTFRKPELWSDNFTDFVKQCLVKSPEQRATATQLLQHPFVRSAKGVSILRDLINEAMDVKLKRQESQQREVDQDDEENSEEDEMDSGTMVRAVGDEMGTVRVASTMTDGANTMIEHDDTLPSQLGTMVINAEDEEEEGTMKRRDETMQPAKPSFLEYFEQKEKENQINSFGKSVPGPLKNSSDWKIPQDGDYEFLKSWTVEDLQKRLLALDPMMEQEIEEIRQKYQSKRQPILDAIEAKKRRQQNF

[3] = target: Ephrin type-B receptor 4 (Homo sapiens) (UniProt P54760); assay: Inhibition of EphB4 in human HeLa cells lysate at 2 uM pre incubated for 15 mins followed by ATP acyl phosphate probe addition and measured after 10 mins by LC-MS/MS analysis relative to control; format: subcellular; conditions: time 25.0 min
[4] = target: T3, Dual specificity mitogen-activated protein kinase kinase 7 (Homo sapiens) (UniProt O14733); assay: Inhibition of MAP2K7 in human HeLa cells lysate at 10 uM pre incubated for 15 mins followed by ADP acyl phosphate probe addition and measured after 10 mins by LC-MS/MS analysis relative to control; format: subcellular; conditions: time 25.0 min
T3 sequence (whole entry): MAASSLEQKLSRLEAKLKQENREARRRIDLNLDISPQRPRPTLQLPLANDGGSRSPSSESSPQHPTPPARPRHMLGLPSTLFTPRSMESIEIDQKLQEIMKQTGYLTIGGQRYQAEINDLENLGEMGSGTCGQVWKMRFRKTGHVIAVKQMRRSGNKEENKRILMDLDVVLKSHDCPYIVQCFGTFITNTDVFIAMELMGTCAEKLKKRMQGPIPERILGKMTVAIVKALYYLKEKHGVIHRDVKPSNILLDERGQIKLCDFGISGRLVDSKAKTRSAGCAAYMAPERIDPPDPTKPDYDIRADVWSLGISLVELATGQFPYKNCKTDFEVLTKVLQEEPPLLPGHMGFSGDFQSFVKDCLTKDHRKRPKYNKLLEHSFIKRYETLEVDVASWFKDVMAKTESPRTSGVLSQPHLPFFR

[5] = target: Macrophage-stimulating protein receptor (Homo sapiens, UniProt Q04912); assay: Inhibition of RON in human HeLa cells lysate at 50 uM pre incubated for 15 mins followed by ADP acyl phosphate probe addition and measured after 10 mins by LC-MS/MS analysis relative to control; format: subcellular; conditions: time 25.0 min
[6] = target: Casein kinase I isoform alpha (Homo sapiens, UniProt P48729); assay: Inhibition of CK1alpha in human HeLa cells lysate at 10 uM pre incubated for 15 mins followed by ATP acyl phosphate probe addition and measured after 10 mins by LC-MS/MS analysis relative to control; format: subcellular; conditions: time 25.0 min
[7] = target: Mitogen-activated protein kinase kinase kinase 1 (Homo sapiens, UniProt Q13233); assay: Inhibition of MAP3K1 in human HeLa cells lysate pre incubated for 15 mins followed by ADP acyl phosphate probe addition and measured after 10 mins by LC-MS/MS analysis; format: subcellular
[8] = target: Cyclin-dependent kinase 11B (Homo sapiens, UniProt P21127); assay: Inhibition of PITSLRE in human HeLa cells lysate at 10 uM pre incubated for 15 mins followed by ATP acyl phosphate probe addition and measured after 10 mins by LC-MS/MS analysis relative to control; format: subcellular; conditions: time 25.0 min
[9] = Toxicity in C57Bl/6 mouse assessed as effect on total bilirubin level at 50 mg/kg, ip for 14 days (reference value: 0.3 mg/dl); format: organism-based; conditions: in vivo, 336 h, time 14 day
[10] = target: T2, Serine/threonine-protein kinase 4 (Homo sapiens); assay: Inhibition of MST1 in human HeLa cells lysate at 10 uM pre incubated for 15 mins followed by ATP acyl phosphate probe addition and measured after 10 mins by LC-MS/MS analysis relative to control; format: subcellular; conditions: time 25.0 min
[11] = Inhibition of MAP3K2/MAP3K3 in human HeLa cells lysate at 10 uM pre incubated for 15 mins followed by ADP acyl phosphate probe addition and measured after 10 mins by LC-MS/MS analysis relative to control; conditions: 25 min, condition cancer
[12] = Toxicity in C57Bl/6 mouse assessed as effect on phosphorus level at 50 mg/kg, ip for 14 days (reference value: 6.8 mg/dl); format: organism-based; conditions: in vivo, 336 h, time 14 day
[13] = target: Tyrosine-protein kinase CSK (Homo sapiens, UniProt P41240); assay: Inhibition of CSK in human HeLa cells lysate at 2 uM pre incubated for 15 mins followed by ADP acyl phosphate probe addition and measured after 10 mins by LC-MS/MS analysis relative to control; format: subcellular; conditions: time 25.0 min
Lewis lung carcinoma = assay: In vivo inhibition of […] in mouse LL2 cells allografted in C57Bl/6 mouse assessed as decrease in Grb2 phosphorylation level for 2 weeks by Western blot analysis; format: functional, organism-based
[14] = Inhibition of PRKX/PRKY in human HeLa cells lysate at 10 uM pre incubated for 15 mins followed by ADP acyl phosphate probe addition and measured after 10 mins by LC-MS/MS analysis relative to control; conditions: 25 min, condition cancer
[15] = Inhibition of MST4/YSK1 in human HeLa cells lysate at 50 uM pre incubated for 15 mins followed by ATP acyl phosphate probe addition and measured after 10 mins by LC-MS/MS analysis relative to control; conditions: 25 min, condition cancer

Tyrosine-protein kinase CSK, sequence (P41240 2-450 limits assumed): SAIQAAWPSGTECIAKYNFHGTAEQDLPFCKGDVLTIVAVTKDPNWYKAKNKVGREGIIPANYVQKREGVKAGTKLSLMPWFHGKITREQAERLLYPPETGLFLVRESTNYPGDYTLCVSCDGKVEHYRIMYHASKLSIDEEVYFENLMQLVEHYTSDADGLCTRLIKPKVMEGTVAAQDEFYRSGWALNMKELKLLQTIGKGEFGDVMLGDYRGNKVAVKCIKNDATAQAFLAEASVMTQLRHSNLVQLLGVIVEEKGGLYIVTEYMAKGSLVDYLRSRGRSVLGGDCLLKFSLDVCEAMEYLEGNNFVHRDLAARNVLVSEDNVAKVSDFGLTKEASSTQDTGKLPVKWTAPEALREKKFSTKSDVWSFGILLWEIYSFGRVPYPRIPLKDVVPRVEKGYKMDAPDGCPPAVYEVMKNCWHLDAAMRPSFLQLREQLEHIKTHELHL
Ephrin type-B receptor 4 (Homo sapiens), sequence (P54760 whole entry): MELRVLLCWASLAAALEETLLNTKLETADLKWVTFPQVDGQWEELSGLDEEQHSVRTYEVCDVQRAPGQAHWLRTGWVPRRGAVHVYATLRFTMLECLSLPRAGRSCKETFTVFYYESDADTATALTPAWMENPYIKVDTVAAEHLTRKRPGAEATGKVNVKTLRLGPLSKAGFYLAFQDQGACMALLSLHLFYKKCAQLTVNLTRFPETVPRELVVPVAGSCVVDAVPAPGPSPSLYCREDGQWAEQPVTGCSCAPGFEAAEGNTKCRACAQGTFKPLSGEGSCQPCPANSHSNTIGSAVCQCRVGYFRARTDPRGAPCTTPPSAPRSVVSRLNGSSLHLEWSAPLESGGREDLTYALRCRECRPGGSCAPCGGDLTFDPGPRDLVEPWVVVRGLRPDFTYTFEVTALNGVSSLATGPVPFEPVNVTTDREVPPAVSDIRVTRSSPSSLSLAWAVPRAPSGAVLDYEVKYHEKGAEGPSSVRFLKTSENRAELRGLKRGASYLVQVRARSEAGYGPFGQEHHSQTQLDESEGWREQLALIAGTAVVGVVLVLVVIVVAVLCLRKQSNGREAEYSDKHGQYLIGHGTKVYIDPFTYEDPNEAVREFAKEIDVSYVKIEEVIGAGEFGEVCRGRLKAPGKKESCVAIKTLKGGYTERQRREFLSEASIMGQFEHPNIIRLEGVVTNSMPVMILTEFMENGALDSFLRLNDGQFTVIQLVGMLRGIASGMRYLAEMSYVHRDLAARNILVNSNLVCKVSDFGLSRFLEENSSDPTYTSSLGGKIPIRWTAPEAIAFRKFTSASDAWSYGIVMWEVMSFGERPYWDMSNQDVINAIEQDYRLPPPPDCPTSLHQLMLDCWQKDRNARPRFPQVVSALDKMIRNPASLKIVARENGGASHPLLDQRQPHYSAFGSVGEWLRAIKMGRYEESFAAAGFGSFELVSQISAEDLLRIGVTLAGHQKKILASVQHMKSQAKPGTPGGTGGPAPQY
Casein kinase I isoform alpha, sequence (P48729 2-337 limits assumed): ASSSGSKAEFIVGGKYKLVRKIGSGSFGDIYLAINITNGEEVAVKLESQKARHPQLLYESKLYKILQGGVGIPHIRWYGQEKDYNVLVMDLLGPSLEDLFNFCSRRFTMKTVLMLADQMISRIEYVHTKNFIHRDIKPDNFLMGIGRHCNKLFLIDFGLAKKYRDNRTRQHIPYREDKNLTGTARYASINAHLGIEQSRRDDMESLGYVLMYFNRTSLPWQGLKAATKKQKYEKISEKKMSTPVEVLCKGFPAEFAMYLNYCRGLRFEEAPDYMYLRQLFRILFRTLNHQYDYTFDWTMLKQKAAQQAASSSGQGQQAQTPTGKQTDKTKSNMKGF
Mitogen-activated protein kinase kinase kinase 1, sequence (Q13233 whole entry): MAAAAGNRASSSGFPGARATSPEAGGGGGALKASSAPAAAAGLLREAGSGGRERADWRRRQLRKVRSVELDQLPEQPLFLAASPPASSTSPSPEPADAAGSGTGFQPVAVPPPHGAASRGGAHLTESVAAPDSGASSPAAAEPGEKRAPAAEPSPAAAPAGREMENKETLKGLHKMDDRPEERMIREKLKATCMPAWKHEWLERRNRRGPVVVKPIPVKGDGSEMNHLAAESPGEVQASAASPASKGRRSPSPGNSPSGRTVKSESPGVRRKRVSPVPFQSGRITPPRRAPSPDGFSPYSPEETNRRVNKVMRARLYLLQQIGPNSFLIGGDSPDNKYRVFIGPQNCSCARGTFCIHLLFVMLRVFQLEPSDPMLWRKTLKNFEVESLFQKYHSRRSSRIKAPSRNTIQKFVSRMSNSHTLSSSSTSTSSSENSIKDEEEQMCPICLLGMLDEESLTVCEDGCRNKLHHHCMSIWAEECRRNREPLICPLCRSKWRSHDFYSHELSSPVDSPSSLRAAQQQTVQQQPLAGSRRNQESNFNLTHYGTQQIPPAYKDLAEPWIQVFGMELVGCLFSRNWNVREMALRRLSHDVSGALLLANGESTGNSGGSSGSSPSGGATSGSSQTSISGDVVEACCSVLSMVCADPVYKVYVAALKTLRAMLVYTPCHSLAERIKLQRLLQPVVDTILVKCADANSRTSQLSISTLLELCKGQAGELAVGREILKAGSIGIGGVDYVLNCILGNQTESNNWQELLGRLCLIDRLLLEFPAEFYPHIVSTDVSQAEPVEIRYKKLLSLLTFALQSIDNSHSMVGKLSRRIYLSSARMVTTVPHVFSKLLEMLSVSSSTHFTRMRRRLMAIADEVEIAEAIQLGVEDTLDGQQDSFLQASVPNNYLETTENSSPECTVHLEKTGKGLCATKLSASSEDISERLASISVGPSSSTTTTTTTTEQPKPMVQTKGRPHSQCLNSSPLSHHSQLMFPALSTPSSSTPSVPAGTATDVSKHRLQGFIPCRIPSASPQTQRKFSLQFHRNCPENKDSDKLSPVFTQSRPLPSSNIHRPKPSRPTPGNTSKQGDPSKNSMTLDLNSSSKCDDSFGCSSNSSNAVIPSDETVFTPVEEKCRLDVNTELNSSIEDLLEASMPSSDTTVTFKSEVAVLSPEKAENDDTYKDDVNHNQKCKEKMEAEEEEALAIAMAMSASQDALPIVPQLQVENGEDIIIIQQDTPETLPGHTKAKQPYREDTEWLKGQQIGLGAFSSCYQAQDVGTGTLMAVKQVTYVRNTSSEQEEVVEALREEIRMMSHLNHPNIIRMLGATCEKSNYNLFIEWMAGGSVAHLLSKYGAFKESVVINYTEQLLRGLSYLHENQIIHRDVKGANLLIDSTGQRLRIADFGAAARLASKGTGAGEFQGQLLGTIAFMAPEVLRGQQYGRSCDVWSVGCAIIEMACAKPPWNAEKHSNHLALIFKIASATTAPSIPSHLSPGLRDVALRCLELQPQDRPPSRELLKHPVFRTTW
Cyclin-dependent kinase 11B, sequence (P21127 whole entry): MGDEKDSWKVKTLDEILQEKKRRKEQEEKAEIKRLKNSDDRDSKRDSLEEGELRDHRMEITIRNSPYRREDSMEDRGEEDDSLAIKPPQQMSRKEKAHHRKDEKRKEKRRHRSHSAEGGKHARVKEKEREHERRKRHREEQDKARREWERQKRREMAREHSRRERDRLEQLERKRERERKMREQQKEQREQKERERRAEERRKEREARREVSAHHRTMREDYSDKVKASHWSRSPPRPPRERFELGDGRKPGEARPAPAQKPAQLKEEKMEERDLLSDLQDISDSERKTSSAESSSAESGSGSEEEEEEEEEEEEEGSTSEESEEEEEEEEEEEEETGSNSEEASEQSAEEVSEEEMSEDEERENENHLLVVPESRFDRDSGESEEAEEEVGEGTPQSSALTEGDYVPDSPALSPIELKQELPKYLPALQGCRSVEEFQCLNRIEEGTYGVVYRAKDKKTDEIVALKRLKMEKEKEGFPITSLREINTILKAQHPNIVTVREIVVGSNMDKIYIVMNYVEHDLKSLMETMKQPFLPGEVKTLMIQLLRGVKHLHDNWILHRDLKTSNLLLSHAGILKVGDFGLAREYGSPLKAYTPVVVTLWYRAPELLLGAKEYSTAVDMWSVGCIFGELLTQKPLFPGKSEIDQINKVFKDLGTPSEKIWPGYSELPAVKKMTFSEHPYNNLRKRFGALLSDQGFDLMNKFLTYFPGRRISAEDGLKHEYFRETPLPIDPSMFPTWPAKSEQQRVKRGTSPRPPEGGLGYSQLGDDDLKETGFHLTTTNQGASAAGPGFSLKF

`CCOc1cc(N2CCC(O)CC2)ccc1Nc1ncc2c(n1)N(C)c1ccccc1C(=O)N2C` showed an inhibition [1] of 19.1%, an inhibition [2] of 30.1% and an inhibition [3] of -5.4%. The inhibition [4] was -9.9%, the inhibition [5] was 24% and the inhibition [6] was -7.9%. The IC50 [7] was > 50 µM, the inhibition [8] was 0.3% and the Activity [9] was 0.3 mg/dL. For the same compound, the inhibition [10] was 1.1%, the inhibition at 10 µM [11] was -18.3% and the Activity [12] was 6.4 mg/dL. The inhibition [13] was 11.6%, the inhibition (Lewis lung carcinoma) was “Active” and the inhibition at 10 µM [14] was -14.3%. The inhibition at 50 µM [15] was -6.1%.
